# Read-outs that look alike come from different tables or passages of the source.
# Experiments:
# T24 cells [1] = experiment: Antiproliferative activity, sulforhodamine B assay, T24 bladder cancer cells; format: cell-based, human; conditions: SRB, mean (±SEM)
# Method: (§1) In vitro antiproliferative activity of the compounds was determined in cells derived from bladder cancer (T24) and prostate cancer (LNCaP). The cells were incubated in the presence of the compounds for 48 h. The antiproliferative activity was determined using the sulforhodamine B assay. The results were expressed as GI50, which is the drug concentration resulting in a 50% reduction of cellular net growth when compared with the values of untreated control cells. The standard anticancer drug cisplatin was used as a positive control, and furoxan 3 and 11a were also included as ⋅NO donor reference compounds. The results are summarized in Table 2 for the Ugi product 7a, Ugi-Fx (8a) and 8b–g Ugi-furoxan derivatives, and GBB product 10 and 12a–e GBB-furoxan derivatives.
# (§2) The T24 cells were grown in McCoy’s 5A (Biological Industries) supplemented with 10% FBS (Capricorn Scientific). The cells were passaged twice per week, and the culture medium was changed with the same frequency. The LNCaP cells were maintained in RPMI media (Biological Industries) supplemented with 10% FBS (Capricorn Scientific) and 10% of its own conditioned medium (complete media). The cells were passaged once per week, and the medium was changed with the same frequency. The HaCaT cells (immortalized human keratinocytes) were cultured in Dulbecco’s modified Eagle medium (Biological Industries) supplemented with 10% FBS (Capricorn Scientific). The cells were passaged twice per week, and the medium was changed with the same frequency. The cell cultures were maintained under a humidified 5% CO2 atmosphere at 37 °C.
# (§3) For viability assays, cells were treated with a 0.25% Trypsin–0.05% EDTA solution and plated in 96-well plates in complete medium the day before the experiment. The cells were seeded in a 96-well plate at densities of 8 × 10^3 cells per well for T24 cells, 12.5 × 10^3 cells per well for LNCaP cells, and 10 × 10^3 cells per well for HaCaT cells. The cultures were allowed to attach for 24 h in a humidified 5% CO2 atmosphere at 37 °C. Then, the cells were treated with increasing concentrations of the compounds (0.4–100.0 µM) prepared in complete medium using stock solutions in DMSO and were kept for 48 h in a CO2 incubator. Wells with only media or 0.5% DMSO were added as controls. The antiproliferative activity of the compounds was assayed using the SRB method in at least three independent experiments.
# LNCaP cells = experiment: Antiproliferative activity, sulforhodamine B assay, LNCaP prostate cancer cells; format: cell-based, human; conditions: 48 h, SRB, mean (±SEM)
# Method: as §1, §2, §3
# HaCaT cells [2] = experiment: Cytotoxicity in non-cancer keratinocytes, sulforhodamine B assay; format: cell-based; conditions: HaCaT human keratinocytes, 0.4–100 µM, SRB; mean (±SEM)
# Method: As a first approximation of the safety profile of the synthesized compounds and to determine the cytotoxic selectivity against cancer cells, the antiproliferative activity in non-cancer cells was studied. This evaluation was carried out in human keratinocyte HaCaT cells with 0.4–100 µM of the test compounds using the sulforhodamine B assay. The selectivity index (SI) was calculated for these compounds by dividing the GI50 for HaCaT by the GI50 for each cancer cell line. […] The derivatives Ugi-Fx (8a) and 12e stand out, with selectivity indices of 14.5 and 10.8, respectively. […] Concerning the LNCaP prostate cancer cell line, as for the reference drug, no selectivity was observed. […] Therefore, this new GBB-furoxan derivative can be a starting point in the design of new structures with improved selectivity.
# as §2, §3
# T24 cells [3] = experiment: Antiproliferative activity with hemoglobin (NO scavenger), SRB assay; format: cell-based, human; conditions: Hb 0 or 50 µM 1 h pretreatment, compounds 10 µM, 48 h, Figure 4
# Method: In this context, we next decided to study the effect of ·NO on their antiproliferative activity against T24 cells after incubation with an ·NO scavenger (Hb, hemoglobin). For this purpose, T24 cells were pretreated for 1 h with 0 or 50 µM of Hb and then the ·NO-donor compounds were added at 10 µM for 48 h. […] However, while for some compounds, such as 8d, ·NO release seems to be crucial for the antiproliferative activity, for others, such as Ugi-Fx (8a), other mechanisms would account for its anticancer effect. It is well-known that the action of 3-phenylsulfonylfuroxan derivatives is connected to ⋅NO release due to their interaction with free intracellular thiols or thiol groups of proteins. However, this action may also involve a covalent bond to thiol biomolecules with the concomitant displacement of the phenylsulfonyl group, leading to a cytotoxic adduct accumulation in the cell milieu. […] Further studies to elucidate the possible mechanisms of action involved will be performed.
# To investigate the contribution of ⋅NO to the antiproliferative activity of the studied compounds, we tested their effect on T24 bladder cancer cell growth in the absence and presence of Hb. Cells were seeded into a 96-well plate at 8 × 10^3 cells per well and were allowed to attach for 24 h. […] Then, the antiproliferative activity was assessed by the SRB assay in at least three independent experiments. […]
# A549 (Lung) = system: A549 (Lung); parameters: method as in PMID 31356736; conditions: cited from earlier work
# HBL-100 (Breast) = system: HBL-100 (Breast); parameters: method as in PMID 31356736; conditions: cited from earlier work
# HeLa (Cervix) = system: HeLa (Cervix); parameters: method as in PMID 31356736; conditions: cited from earlier work
# SW1573 (Lung) = system: SW1573 (Lung); parameters: method as in PMID 31356736; conditions: cited from earlier work
# T-47D (Breast) = system: T-47D (Breast); parameters: method as in PMID 31356736; conditions: cited from earlier work
# WiDr (Colon) = system: WiDr (Colon); parameters: method as in PMID 31356736; conditions: cited from earlier work
# HaCaT cells [4] = system: HaCaT cells; parameters: method as in PMID 30489292; conditions: HaCaT human keratinocytes; cited from earlier work
Structure (SMILES),"GI50 (T24 cells [1]; Homo sapiens, T-24, 48 h) [µM]",GI50 (LNCaP cells; Homo sapiens) [µM],GI50 (HaCaT cells [2]) [µM],further results
"Cc1ccc(N(C(=O)c2ccccc2Oc2no[n+]([O-])c2S(=O)(=O)c2ccccc2)C(C(=O)NC(C)(C)C)c2ccccc2)cc1 (stereo not drawn) [8b, N-[1-(tert-butylaminocarbonyl)-1-phenylmethyl]-N-(4-methylphenyl)-2-[3-(phenylsulfonyl)-[1,2,5]oxadiazol-4-yl N2-oxide]oxyphenylcarboxamide]",1.83,13.3,3.78,
"Cc1ccc(N(C(=O)c2ccc(Oc3no[n+]([O-])c3S(=O)(=O)c3ccccc3)cc2)C(C(=O)NC(C)(C)C)c2ccccc2)cc1 (stereo not drawn) [8c, N-[1-(tert-butylaminocarbonyl)-1-phenylmethyl]-N-(4-methylphenyl)-4-[3-(phenylsulfonyl)-[1,2,5]oxadiazol-4-yl N2-oxide]oxyphenylcarboxamide]",2.18,18.8,4.62,
"Cc1ccc(N(CC(=O)NC(C)(C)C)C(=O)c2cccc(Oc3no[n+]([O-])c3S(=O)(=O)c3ccccc3)c2)cc1 [8d, N-(1-(tert-butylaminocarbonyl)methyl)-N-(4-methylphenyl)-3-[3-(phenylsulfonyl)-[1,2,5]oxadiazol-4-yl N2-oxide]oxy phenylcarboxamide]",2.1,21.8,9.99,
"CCCCN(CC(=O)NC(C)(C)C)C(=O)c1cccc(Oc2no[n+]([O-])c2S(=O)(=O)c2ccccc2)c1 [8f, N-(1-(tert-butylaminocarbonyl)methyl)-N-(butyl)-3-[3-(phenylsulfonyl)-[1,2,5]oxadiazol-4-yl N2-oxide]oxyphenylcarboxamide]",2.86,29.9,11.8,
"CC(C)(C)Nc1c(-c2ccc(Oc3no[n+]([O-])c3S(=O)(=O)c3ccccc3)cc2)nc2ccccn12 [12c, 4-(4-(3-(tert-butylamino)imidazo[1,2-a]pyridin-2-yl)phenoxy)-3-(phenylsulfonyl)-1,2,5-oxadiazole 2-oxide]",2.99,24.2,5.22,
"CC(C)(C)Nc1c(-c2cccc(Oc3no[n+]([O-])c3S(=O)(=O)c3ccccc3)c2)nc2cnccn12 [12d, 4-(3-(3-(tert-butylamino)imidazo[1,2-a]pyrazin-2-yl)phenoxy)-3-(phenylsulfonyl)-1,2,5-oxadiazole 2-oxide]",2.72,8.13,9.84,
"CC(C)(C)Nc1c(-c2cccc(Oc3no[n+]([O-])c3S(=O)(=O)c3ccccc3)c2)nc2sccn12 [12e, 4-(3-(5-(tert-butylamino)imidazo[2,1-b]thiazol-6-yl)phenoxy)-3-(phenylsulfonyl)-1,2,5-oxadiazole 2-oxide]",0.83,16.5,9.01,GI50 T24 (T24 cells [1]; 48 h): sub-micromolar range
"N.N.[Cl][Pt][Cl] [Cisplatin, cisplatin, reference compound]",,,2.51,GI50 (T24 cells [1]; 48 h): 3.28 µM; GI50 (LNCaP cells): 20.3 µM
"Cc1ccc(N(C(=O)c2cccc(Oc3no[n+]([O-])c3S(=O)(=O)c3ccccc3)c2)C(C(=O)NC(C)(C)C)c2ccccc2)cc1 (stereo not drawn) [Ugi-Fx (8a), N-[1-(tert-butylaminocarbonyl)-1-phenylmethyl]-N-(4-methylphenyl)-3-[3-(phenylsulfonyl)-[1,2,5]oxadiazol-4-yl N2-oxide]oxyphenylcarboxamide]",0.73,20.2,10.6,GI50 T24 (T24 cells [1]; 48 h): sub-micromolar range; Effect of hemoglobin on antiproliferative effect (cell growth inhibition) (T24 cells [3]): high antiproliferative activity even in the presence of a ⋅NO scavenger; GI50 (A549 (Lung)): 2.3 µM; GI50 (HBL-100 (Breast)): 0.23 µM; GI50 (HeLa (Cervix)): 1.8 µM; GI50 (SW1573 (Lung)): 0.021 µM; GI50 (T-47D (Breast)): 1.9 µM; GI50 (WiDr (Colon)): 3 µM
"O=S(=O)(c1ccccc1)c1no[n+]([O-])c1S(=O)(=O)c1ccccc1 [compound 2, 3,4-bis(phenylsulfonyl)furoxan]",,,,GI50 (HaCaT cells [4]): 1.47 µM
"O=C(O)c1cccc(Oc2no[n+]([O-])c2S(=O)(=O)c2ccccc2)c1 [compound 3, reference compound]",8.6,32.5,14.4,

# The next lines start with results.
"GI50 (T24 cells [1]; Homo sapiens, T-24, 48 h) [µM]",GI50 (LNCaP cells; Homo sapiens) [µM],Structure (SMILES),GI50 (HaCaT cells [2]) [µM],further results
> 100,> 100,"Cc1ccc(N(C(=O)c2cccc(O)c2)C(C(=O)NC(C)(C)C)c2ccccc2)cc1 (stereo not drawn) [7a, N-(1-(tert-butylaminocarbonyl)-1-phenylmethyl)-N-(4-methylphenyl)-3-hydroxyphenyl carboxamide]",,
1.53,21.8,"CCCCN(C(=O)c1cccc(Oc2no[n+]([O-])c2S(=O)(=O)c2ccccc2)c1)C(C(=O)NC(C)(C)C)c1ccccc1 (stereo not drawn) [8e, N-(1-(tert-butylaminocarbonyl)-1-phenylmethyl)-N-(butyl)-3-[3-(phenylsulfonyl)-[1,2,5]oxadiazol-4-yl N2-oxide]oxyphenylcarboxamide]",11.8,
1.7,36.7,"Cc1ccc(N(C(=O)c2ccccc2)C(C(=O)NC(C)(C)C)c2cccc(Oc3no[n+]([O-])c3S(=O)(=O)c3ccccc3)c2)cc1 (stereo not drawn) [8g, N-(1-(tert-butylaminocarbonyl)-1-3-[3-(phenylsulfonyl)-[1,2,5]oxadiazol-4-yl N2-oxide]oxyphenylmethyl)-N-(4-methylphenyl)-phenylcarboxamide]",4.99,
7.08,24.5,"O=Cc1cccc(Oc2no[n+]([O-])c2S(=O)(=O)c2ccccc2)c1 [11a, reference compound]",7.83,
1.76,24.7,"CC(C)(C)Nc1c(-c2cccc(Oc3no[n+]([O-])c3S(=O)(=O)c3ccccc3)c2)nc2ccccn12 [12a, 4-(3-(3-(tert-butylamino)imidazo[1,2-a]pyridin-2-yl)phenoxy)-3-(phenylsulfonyl)-1,2,5-oxadiazole 2-oxide]",7.44,
0.85,7.7,"CC(C)(C)Nc1c(-c2ccccc2Oc2no[n+]([O-])c2S(=O)(=O)c2ccccc2)nc2ccccn12 [12b, 4-(2-(3-(tert-butylamino)imidazo[1,2-a]pyridin-2-yl)phenoxy)-3-(phenylsulfonyl)-1,2,5-oxadiazole 2-oxide]",3.11,GI50 T24 (T24 cells [1]; 48 h): sub-micromolar range
> 100,> 100,"CC(C)(C)Nc1c(-c2cccc(O)c2)nc2ccccn12 [compound 10, N-tert-Butyl-2-(3-hydroxyphenyl)imidazo[1,2-a]pyridin-3-amine]",,
